Data: US11345702B1 (Myoforte Therapeutics, Inc., priority 2020, dated 2022)
In brackets after ≈: the same amount, converted by molar mass. Like-named read-outs stand apart in the source and are kept apart here.

Columns and labels:
[1] = Liver microsome stability assay (HLM); assay type: in vitro ADME; conditions: human liver microsomes
Description: (§1) A microsomal mixture (microsomes and Kphos buffer) was prepared at a concentration of 1.428 mg/mL in 2 mL tubes. To this microsomal mixture 1.6 μL (1 mM) of test compound and positive control were spiked; from this mixture, 70 μL was transferred to 96 well plate and pre-incubated at 37° C. for 5 min. After pre-incubation, the zero minute time point reaction was stopped using 100 μL of ice-cold acetonitrile containing internal standard and […] (3.33 mM in Kphos buffer) was added. The 45 minute time point reaction was initiated by addition of 30 μL of NADPH (3.33 mM in Kphos buffer) and incubated at 37° C. for 15 and 45 min. Reactions without NADPH and buffer controls (minus NADPH) at 0, 15, and 45 minutes were also incubated to rule out non-NADPH metabolism or chemical instability in the incubation buffer. Incubation reactions were stopped with 100 μL of ice-cold acetonitrile containing internal standard. The plates were centrifuged at 4000 RPM for 15 min and 100 μL aliquots were submitted for analysis by LC-MS/MS. (Verapamil in human liver microsomes (HLM) and rat liver microsomes (RLM) was used as positive controls. Imipramine in mouse liver microsomes (MLM) was used as a positive control.) Samples were monitored for parent compound disappearance in MRM mode (multiple reaction monitoring) using LC-MS/MS. The peak area ratios of analyte versus internal standard were used to calculate the % remaining at the end of 45 minutes in the presence of NADPH.

[2] = Liver microsome stability assay (RLM); assay type: in vitro ADME; conditions: rat liver microsomes
Description: as §1

15-PGDH/HPGD = 15-PGDH/HPGD (Homo sapiens (Human), UniProt P15428); assay: hPGDH inhibitor screening biochemical assay
15-PGDH/HPGD, sequence (P15428 whole entry): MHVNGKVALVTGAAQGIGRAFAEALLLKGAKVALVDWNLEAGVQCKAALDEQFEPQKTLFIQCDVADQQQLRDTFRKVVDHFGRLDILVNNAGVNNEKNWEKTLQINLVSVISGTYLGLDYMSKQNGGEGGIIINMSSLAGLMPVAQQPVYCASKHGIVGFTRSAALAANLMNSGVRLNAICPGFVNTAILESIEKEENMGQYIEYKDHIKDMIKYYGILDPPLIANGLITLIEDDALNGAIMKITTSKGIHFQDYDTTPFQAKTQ
Outline: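 Ten-point dose-response inhibition of 15-PGDH measured by fluorescence (340/485 nm) after 10 min at room temperature with PGE2 (15 μM) and NAD+ (0.25 mM), following 10 min enzyme (10 nM)–compound pre-incubation at 37 °C. Buffer: 50 mM Tris-HCl pH 7.5, 0.01% Tween 20. Percent inhibition relative to 1% DMSO; four-parameter IC50.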

Solubility at pH 7.4 = assay type: physicochemical
[3] = Liver microsome stability assay (MLM); assay type: in vitro ADME; conditions: mouse liver microsomes
Description: as §1

[4] = pH 7.4, aqueous buffer, read-out: Solubility: Solubility at pH 7.4
[5] = aqueous buffer, pH 7.4, 6-5 ring core, read-out: Solubility at pH 7.4
[6] = aqueous buffer, pH 7.4, phenyl core, read-out: Solubility at pH 7.4

Compound	RLM + NADPH (% remaining at 45 min) [2] [%]	IC50 (15-PGDH/HPGD; read-out: hPGDH: Average IC50) [µM]	solubility (Solubility at pH 7.4; [5]) [µM]	also measured
O=C(c1cnc2c(c1)c(Cl)cn2-c1cnccn1)N1CCC(F)CC1 [MF-DH-124]	34	< 0.1	–	HLM + NADPH (% remaining at 45 min) [1]: 48%
COc1ccc(-n2c(CC#N)nc3cc(C(=O)N4CCC(F)CC4)cnc32)cc1 [MF-DH-130]	74	0.1 to 1	–	HLM + NADPH (% remaining at 45 min) [1]: 68%
Cc1cncc(-n2cc(Cl)c3cc(C(=O)N4CCC(F)CC4)cnc32)n1 [MF-DH-166, (3-chloro-1-(6-methylpyrazin-2-yl)-1H-pyrrolo[2,3-b]pyridin-5-yl)(4-fluoropiperidin-1-yl)methanone]	33	< 0.1	–	HLM + NADPH (% remaining at 45 min) [1]: 47%
O=C(c1cnc2c(c1)ncn2-c1ccc(OC(F)(F)F)cc1)N1CCC(F)CC1 [MF-DH-218]	34	0.1 to 1	–	–
O=C(c1cnc2c(c1)ncn2-c1ccc(OC(F)(F)F)cc1)N1CCCCC1 [MF-DH-219]	26	< 0.1	–	–
O=C(c1cnc2c(c1)ncn2-c1ccc(OC(F)F)cc1)N1CCCCC1 [MF-DH-223]	74	< 0.1	–	–
CCOc1ccc(-n2cnc3cc(C(=O)N4CCCCC4)cnc32)cc1 [MF-DH-225]	40	< 0.1	–	–
O=C(c1cnc2c(c1)ncn2-c1cccc(OC(F)(F)F)c1)N1CCCCC1 [MF-DH-227]	48	0.1 to 1	–	–
O=C(c1cnc2c(c1)ncn2-c1cccc(OC(F)F)c1)N1CCC(F)CC1 [MF-DH-228]	69	0.1 to 1	–	–
O=C(c1cnc2c(c1)ncn2-c1cccc(OC(F)F)c1)N1CCCCC1 [MF-DH-229]	39	0.1 to 1	–	–
CCC(CC)n1cnc2cc(C(=O)N3CCCCC3)ccc21 [MF-DH-237]	0	< 0.1	–	–
COc1ccc(-n2nnc3cc(C(=O)N4CCC(F)CC4)ccc32)cc1 [MF-DH-242, (4-fluoropiperidin-1-yl)(1-(4-methoxyphenyl)-1H-benzo[d][1,2,3]triazol-5-yl)methanone]	51	< 0.1	–	–
COc1ccc(-n2nnc3cc(C(=O)N4CCCCC4)ccc32)cc1 [MF-DH-243, (1-(4-methoxyphenyl)-1H-benzo[d][1,2,3]triazol-5-yl)(piperidin-1-yl)methanone]	34	< 0.1	–	–
COc1ccc(-n2ncc3cc(C(=O)N4CCCCC4)ccc32)cc1 [MF-DH-245]	16	< 0.1	–	–
COc1ccc(-n2nc(Cl)c3cc(C(=O)N4CCC(F)CC4)ccc32)cc1 [MF-DH-246]	46	0.1 to 1	–	–
COc1ccc(-n2nc(Cl)c3cc(C(=O)N4CCCCC4)ccc32)cc1 [MF-DH-247]	22	0.1 to 1	–	–
O=C(c1cnc2c(ccn2-c2ccc3c(c2)OC(F)(F)O3)c1)N1CCCCC1 [MF-DH-249]	29	< 0.1	–	–
COCCc1nc2cc(C(=O)N3CCCCC3)cnc2n1-c1ccc(OC)cc1 [MF-DH-267]	67	0.1 to 1	–	–
COc1ccc(-n2c(CCC(F)(F)F)nc3cc(C(=O)N4CCCCC4)cnc32)cc1 [MF-DH-268]	60	0.1 to 1	–	–
COc1ccc(-n2ccc3c(C)c(C(=O)N4CCCCC4)cnc32)cc1 [MF-DH-287]	44	< 0.1	–	–
O=C(c1ccc2c(cnn2-c2cncc(Cl)c2)c1)N1CCCCC1 [MF-DH-292]	27	< 0.1	–	solubility (Solubility at pH 7.4; [4]): 69 µM (≈ 23.5 µg/mL)
COc1ccc(Cn2ncc3cc(-n4ccc5cc(C(=O)N6CCCCC6)cnc54)ccc32)cc1 [MF-DH-337]	1	< 0.1	–	solubility (Solubility at pH 7.4; [4]): < 5 µM
Cc1c(C(=O)N2CCC(F)CC2)cnc2c1ccn2-c1ccc(C(N)=O)cc1 [MF-DH-380, 4-(5-(4-fluoropiperidine-1-carbonyl)-4-methyl-1H-pyrrolo[2,3-b]pyridin-1-yl)benzamide]	–	< 0.1	–	solubility (Solubility at pH 7.4; [4]): 75 µM (≈ 28.5 µg/mL); MLM + NADPH (% remaining at 45 min) [3]: 89%
C[C@@H]1C[C@H](C)CN(C(=O)c2cnc3c(ccn3-c3ccc(C(N)=O)cc3)c2)C1 [MF-DH-395, 4-(5-((3R,5S)-3,5-dimethylpiperidine-1-carbonyl)-1H-pyrrolo[2,3-b]pyridin-1-yl)benzamide]	–	< 0.1	–	solubility (Solubility at pH 7.4; [4]): 80 µM (≈ 30.1 µg/mL); MLM + NADPH (% remaining at 45 min) [3]: 8%
CC(C)NC(=O)c1ccc(-n2ccc3cc(C(=O)N4CCC(F)(F)CC4)cnc32)cc1 [MF-DH-404]	–	< 0.1	–	solubility (Solubility at pH 7.4; [4]): < 5 µM; MLM + NADPH (% remaining at 45 min) [3]: 101%

Compound	RLM + NADPH (% remaining at 45 min) [2] [%]	IC50 (15-PGDH/HPGD; read-out: hPGDH: Average IC50) [µM]	solubility (Solubility at pH 7.4; [5]) [µM]	also measured
O=C(O)c1ccc(-n2ccc3cc(C(=O)N4CCC(F)(F)CC4)cnc32)cc1 [MF-DH-424, 4-(5-(4,4-difluoropiperidine-1-carbonyl)-1H-pyrrolo[2,3-b]pyridin-1-yl)benzoic acid]	–	< 0.1	–	solubility (Solubility at pH 7.4; [4]): 156 µM (≈ 60.1 µg/mL); MLM + NADPH (% remaining at 45 min) [3]: 96%
O=C(c1cnc2c(ccn2-c2cncc(-c3nnn[nH]3)c2)c1)N1CCC(F)(F)CC1 [MF-DH-453, (1-(5-(1H-tetrazol-5-yl)pyridin-3-yl)-1H-pyrrolo[2,3-b]pyridin-5-yl)(4,4-difluoropiperidin-1-yl)methanone]	–	< 0.1	–	solubility (Solubility at pH 7.4; [4]): > 100 µM; MLM + NADPH (% remaining at 45 min) [3]: 116%
O=C(c1cnc2c(ccn2-c2cncc(-c3noc(=O)[nH]3)c2)c1)N1CCC(F)(F)CC1 [MF-DH-454, 3-(5-(5-(4,4-difluoropiperidine-1-carbonyl)-1H-pyrrolo[2,3-b]pyridin-1-yl)pyridin-3-yl)-1,2,4-oxadiazol-5(4H)-one]	–	< 0.1	–	solubility (Solubility at pH 7.4; [4]): > 100 µM; MLM + NADPH (% remaining at 45 min) [3]: 92%
O=C(Nc1cncc(-n2ccc3cc(C(=O)N4CCC(F)(F)CC4)cnc32)c1)c1ccno1 [MF-DH-458]	–	< 0.1	–	solubility (Solubility at pH 7.4; [4]): 62 µM (≈ 28.1 µg/mL); MLM + NADPH (% remaining at 45 min) [3]: 68%
COc1ccc(-n2cnc3cc(C(=O)N4CCC(F)(F)CC4)cnc32)cc1 [drawing 191]	–	–	140 (≈ 52.1 µg/mL)	–
COc1ccc(-n2cnc3cc(C(=O)N4CCC(F)CC4)cnc32)cc1 [drawing 192]	–	–	140 (≈ 49.6 µg/mL)	–
COc1ccc(-n2cnc3cc(C(=O)N4CCCCC4)cnc32)cc1 [drawing 193]	–	–	160 (≈ 53.8 µg/mL)	–
O=C(c1ccc2c(c1)ncn2-c1cccc(Cl)c1)N1CCCCC1 [drawing 211]	–	–	120 (≈ 40.8 µg/mL)	–
O=C(c1ccc2c(c1)ncn2-c1cccc(Cl)c1)N1CC2(CCC2)C1 [drawing 212]	–	–	16 (≈ 5.63 µg/mL)	–
O=C(c1ccc2c(c1)ncn2-c1cccc(Cl)c1)N1CC2CCCC2C1 (stereo not shown) [drawing 215]	–	–	33 (≈ 12.1 µg/mL)	–
O=C(c1cnc2c(ccn2-c2cccc(Cl)c2)c1)N1CCCCC1 [drawing 216]	–	–	21 (≈ 7.14 µg/mL)	IC50 (15-PGDH/HPGD; PGDH inhibitors with a 6-5 ring core, read-out: hPGDH: IC50): 0.0015 µM
COc1ccc(-n2c(C3CC3)nc3cc(C(=O)N4CCCCC4)ccc32)cc1 [drawing 218]	–	–	45 (≈ 16.9 µg/mL)	–
O=C(c1cnc2c(c1)ncn2-c1cccc(Cl)c1)N1CCCCC1 [drawing 219]	–	–	150 (≈ 51.1 µg/mL)	–
O=C(c1cnc2c(-c3cccc(Cl)c3)cnn2c1)N1CCCCC1 [drawing 220]	–	–	< 5	–
O=C(c1ccc2c(c1)nnn2-c1cccc(Cl)c1)N1CCCCC1 [drawing 221]	–	–	68 (≈ 23.2 µg/mL)	–
COc1ccc(-n2cnc3cc(C(=O)N4CCC(F)CC4)ccc32)cc1 [drawing 222]	–	–	160 (≈ 56.5 µg/mL)	–
COc1ccc(-n2cnc3cc(C(=O)N4CCCCC4)ccc32)cc1 [drawing 223]	–	–	150 (≈ 50.3 µg/mL)	–
O=C(c1ccc2c(cnn2-c2cccc(Cl)c2)c1)N1CCCCC1 [drawing 224]	–	–	6.9 (≈ 2.34 µg/mL)	–
O=C(c1ccc2c(ccn2-c2cccc(Cl)c2)c1)N1CCCCC1 [drawing 225]	–	–	< 5	–
COc1ccccc1C(=O)N(C)c1ccc(C(=O)N2CCCCC2)cc1 [drawing 229]	–	–	–	solubility (Solubility at pH 7.4; [6]): 160 µM (≈ 56.4 µg/mL)
O=C(c1ccc(COc2ccccc2Cl)cc1)N1CCCCC1 [drawing 230]	–	–	–	solubility (Solubility at pH 7.4; [6]): 38 µM (≈ 12.5 µg/mL)
COc1ccccc1C(=O)Nc1ccc(C(=O)N2CCCCC2)cc1 [drawing 231]	–	–	–	solubility (Solubility at pH 7.4; [6]): 29 µM (≈ 9.81 µg/mL)
COc1ccccc1NC(=O)c1ccc(C(=O)N2CCCCC2)cc1 [drawing 232]	–	–	–	solubility (Solubility at pH 7.4; [6]): 88 µM (≈ 29.8 µg/mL)
O=C(c1ccc(COc2ccccc2Br)cc1)N1CCCCC1 [drawing 233]	–	–	–	solubility (Solubility at pH 7.4; [6]): 6.3 µM (≈ 2.36 µg/mL)
